For 26 compounds, IC50 results are on record in US8785457B2 (Cellzome Limited, priority 2009, dated 2014).

Where two headings read alike, the source gives them in different places.

Assay [1] concerns S6RP serine-240/244 phosphorylation. Nature of the assay: In vitro Phospho-S6 cellular assay (pS6RP S240/244) in HEK293T/17 cells. The class given is cell-based. As to conditions: Homo sapiens, 2 hours, read-out: pS6 IC50. A digest of the protocol:
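HEK293T/17 cells were seeded at 40,000 (pS6RP) or 80,000 (pAkt) cells/well in DMEM with 2% FCS. They were exposed to 8 compound concentrations (0.1% DMSO) for 2 h at 37 °C and then lysed. Phosphoprotein was quantified by MesoScale electrochemiluminescence sandwich immunoassay, and the sigmoidal variable-slope dose-response was fitted.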

The target of the next assay is T1, mTOR (Homo sapiens, UniProt P42345).
T1 construct: endogenous in cells; host or cells: Jurkat, clone E6-1 (ATCC TIB-152) cell lysate
Kind of assay: mTOR kinobeads assay (competitive binding in Jurkat cell lysate, immunodetection). To be noted: kinobeads assay. The essentials: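 IC50 derived from dose-response curves of mTOR captured on immobilized phenylmorpholin-chromen beads, detected by antibody dot blot with infrared fluorescence.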

Where [2] appears, read: Table 4, read-out: Inhibition values (IC50) mTor.
Where [3] appears, read: Table 6, read-out: Inhibition values (IC50) mTOR.

For the compound `CCNC(=O)Nc1ccc(-c2nc3c(c(N4CCOC[C@@H]4C)n2)CN(C(=O)OC(C)(C)C)C3)cc1` [Example 1, (S)-tert-butyl 2-(4-(3-ethylureido)phenyl)-4-(3-methylmorpholino)-5H-pyrrolo[3,4-d]pyrimidine-6(7H)-carboxylate], the IC50 was 52 nM in assay [1], 100 to 1000 nM at mTOR (setting [2]) and 100 to 1000 nM on mTOR (setting [3]).
Turning to `CCNC(=O)Nc1ccc(-c2nc3c(c(N4CCOC[C@@H]4C)n2)CCN(C(=O)C(C)(C)C)C3)cc1` [Example 58, (S)-1-ethyl-3-(4-(4-(3-methylmorpholino)-7-pivaloyl-5,6,7,8-tetrahydropyrido[3,4-d]pyrimidin-2-yl)phenyl)urea], the IC50 in assay [1] is 34 nM; at mTOR (setting [2]), below 100 nM; on mTOR (setting [3]) it was below 100 nM.
Take `CCNC(=O)Nc1ccc(-c2nc3c(c(N4CCOC[C@@H]4C)n2)CCN(C(C)=O)C3)cc1` [Example 59, (S)-1-(4-(7-acetyl-4-(3-methylmorpholino)-5,6,7,8-tetrahydropyrido[3,4-d]pyrimidin-2-yl)phenyl)-3-ethylurea]: the IC50 in assay [1] was 160 nM; at mTOR (setting [2]), below 100 nM; on mTOR (setting [3]), below 100 nM.
For the compound `C[C@H]1COCCN1c1nc(-c2ccc(NC(=O)NC3CC3)cc2)nc2c1CCN(C(=O)C1CC1)C2` [Example 60, (S)-1-(4-(7-(cyclopropanecarbonyl)-4-(3-methylmorpholino)-5,6,7,8-tetrahydropyrido[3,4-d]pyrimidin-2-yl)phenyl)-3-cyclopropylurea], the IC50 in assay [1] is 37 nM; on mTOR (setting [2]) it was below 100 nM; on mTOR (setting [3]) it was below 100 nM.
As to `CC(C)C(=O)N1CCc2c(nc(-c3ccc(NC(=O)NC4CC4)cc3)nc2N2CCOC[C@@H]2C)C1` [Example 61, (S)-1-cyclopropyl-3-(4-(7-isobutyryl-4-(3-methylmorpholino)-5,6,7,8-tetrahydropyrido[3,4-d]pyrimidin-2-yl)phenyl)urea], the IC50 in assay [1] is 22 nM; at mTOR (setting [2]), below 100 nM; on mTOR (setting [3]) it was below 100 nM.
As for `CC(=O)N1CCc2c(nc(-c3ccc(NC(=O)NC4CC4)cc3)nc2N2CCOC[C@@H]2C)C1` [Example 62, (S)-1-(4-(7-acetyl-4-(3-methylmorpholino)-5,6,7,8-tetrahydropyrido[3,4-d]pyrimidin-2-yl)phenyl)-3-cyclopropylurea], the figures for the IC50 (in assay [1]; at mTOR (setting [2]); at mTOR (setting [3])) were 49 nM, below 100 nM and below 100 nM, respectively.
`C[C@H]1COCCN1c1nc(-c2ccc(NC(=O)NC3CC3)cc2)nc2c1CCN(C(=O)C(C)(C)C)C2` [Example 64, (S)-1-cyclopropyl-3-(4-(4-(3-methylmorpholino)-7-pivaloyl-5,6,7,8-tetrahydropyrido[3,4-d]pyrimidin-2-yl)phenyl)urea]: the IC50 in assay [1] was 30 nM; at mTOR (setting [3]), below 100 nM.
In the same order, the values of `CC(C)CN1Cc2nc(-c3ccc(NC(=O)NC4CC4)cc3)nc(N3CCOC[C@@H]3C)c2C1` [Example 65, (S)-1-cyclopropyl-3-(4-(6-isobutyl-4-(3-methylmorpholino)-6,7-dihydro-5H-pyrrolo[3,4-d]pyrimidin-2-yl)phenyl)urea] are 149 nM and below 100 nM.
With `CCNC(=O)Nc1ccc(-c2nc3c(c(N4CCOC[C@@H]4C)n2)CN(CC(C)C)C3)cc1` [Example 66, (S)-1-ethyl-3-(4-(6-isobutyl-4-(3-methylmorpholino)-6,7-dihydro-5H-pyrrolo[3,4-d]pyrimidin-2-yl)phenyl)urea], the IC50 is 74 nM in assay [1] and below 100 nM at mTOR (setting [3]).
The like results for `CCNC(=O)Nc1ccc(-c2nc3c(c(N4CCOC[C@@H]4C)n2)CN(CC(C)(C)C)C3)cc1` [Example 67, (S)-1-ethyl-3-(4-(4-(3-methylmorpholino)-6-neopentyl-6,7-dihydro-5H-pyrrolo[3,4-d]pyrimidin-2-yl)phenyl)urea] were, in that order, 143 nM and 100 to 1000 nM.
In the same order, the values of `CCNC(=O)Nc1ccc(-c2nc3c(c(N4CCOC[C@@H]4C)n2)CN(CC(F)(F)F)C3)cc1` [Example 68, (S)-1-ethyl-3-(4-(4-(3-methylmorpholino)-6-(2,2,2-trifluoroethyl)-6,7-dihydro-5H-pyrrolo[3,4-d]pyrimidin-2-yl)phenyl)urea] are 243 nM and 100 to 1000 nM.
In the same order, the values of `CCNC(=O)Nc1ccc(-c2nc3c(c(N4CCOCC4)n2)CN(C)C3)cc1` [Example 69, 1-Ethyl-3-(4-(6-methyl-4-morpholino-6,7-dihydro-5H-pyrrolo[3,4-d]pyrimidin-2-yl)phenyl)urea] are 208 nM and below 100 nM.
Regarding `CCNC(=O)Nc1ccc(-c2nc3c(c(N4CCOCC4)n2)CN(C(=O)OCC)C3)cc1` [Example 70, Ethyl 2-(4-(3-ethylureido)phenyl)-4-morpholino-5H-pyrrolo[3,4-d]pyrimidine-6(7H)-carboxylate], the results for the IC50 (in assay [1]; at mTOR (setting [3])) were 133 nM and below 100 nM, respectively.
In the same order, the values of `C[C@H]1COCCN1c1nc(-c2ccc(NC(N)=O)cc2)nc2c1CN(C)C2` [Example 71, (S)-1-(4-(6-methyl-4-(3-methylmorpholino)-6,7-dihydro-5H-pyrrolo[3,4-d]pyrimidin-2-yl)phenyl)urea] are 690 nM and below 100 nM.
For the compound `Cc1cc(NC(=O)Nc2ccc(-c3nc4c(c(N5CCOC[C@@H]5C)n3)CN(C)C4)cc2)no1` [Example 72, (S)-1-(4-(6-methyl-4-(3-methylmorpholino)-6,7-dihydro-5H-pyrrolo[3,4-d]pyrimidin-2-yl)phenyl)-3-(5-methylisoxazol-3-yl)urea], the figures for the IC50 (in assay [1]; at mTOR (setting [3])) were 129 nM and 100 to 1000 nM, respectively.
The like results for `C[C@H]1COCCN1c1nc(-c2ccc(NC(=O)NCCO)cc2)nc2c1CN(C)C2` [Example 73, (S)-1-(2-hydroxyethyl)-3-(4-(6-methyl-4-(3-methylmorpholino)-6,7-dihydro-5H-pyrrolo[3,4-d]pyrimidin-2-yl)phenyl)urea] were, in that order, 425 nM and below 100 nM.
For the compound `CCNC(=O)Nc1ccc(-c2nc3c(c(N4CCOC[C@@H]4C)n2)CN(C(C)C)C3)cc1` [Example 74, (S)-1-ethyl-3-(4-(6-isopropyl-4-(3-methylmorpholino)-6,7-dihydro-5H-pyrrolo[3,4-d]pyrimidin-2-yl)phenyl)urea], the IC50 was 110 nM in assay [1] and below 100 nM on mTOR (setting [3]).
The like results for `CCNC(=O)Nc1ccc(-c2nc3c(c(N4CCOC[C@@H]4C)n2)CCN(CC(C)C)C3)cc1.O=CO` [Example 76, (S)-1-ethyl-3-(4-(7-isobutyl-4-(3-methylmorpholino)-5,6,7,8-tetrahydropyrido[3,4-d]pyrimidin-2-yl)phenyl)urea formate] were, in that order, 95 nM and below 100 nM.
The like results for `CCNC(=O)Nc1ccc(-c2nc3c(c(N4CCOC[C@@H]4C)n2)CCN(C(=O)OCC)C3)cc1` [Example 77, (S)-ethyl 2-(4-(3-ethylureido)phenyl)-4-(3-methylmorpholino)-5,6-dihydropyrido[3,4-d]pyrimidine-7(8H)-carboxylate] were, in that order, 38 nM and below 100 nM.
The like results for `CCOC(=O)N1CCc2c(nc(-c3ccc(NC(=O)NC4CC4)cc3)nc2N2CCOC[C@@H]2C)C1` [Example 78, (S)-ethyl 2-(4-(3-cyclopropylureido)phenyl)-4-(3-methylmorpholino)-5,6-dihydropyrido[3,4-d]pyrimidine-7(8H)-carboxylate] were, in that order, 35 nM and below 100 nM.
As for `C[C@H]1COCCN1c1nc(-c2ccc(NC(=O)Nc3cccc(O)n3)cc2)nc2c1CN(C)C2` [Example 80, (S)-1-(6-hydroxypyridin-2-yl)-3-(4-(6-methyl-4-(3-methylmorpholino)-6,7-dihydro-5H-pyrrolo[3,4-d]pyrimidin-2-yl)phenyl)urea], the IC50 was 89 nM in assay [1] and below 100 nM at mTOR (setting [3]).
In the same order, the values of `CCNC(=O)Nc1ccc(-c2nc3c(c(N4CCOC[C@@H]4C)n2)CCN(C(=O)OC)C3)cc1` [Example 81, (S)-methyl 2-(4-(3-ethylureido)phenyl)-4-(3-methylmorpholino)-5,6-dihydropyrido[3,4-d]pyrimidine-7(8H)-carboxylate] are 47 nM and below 100 nM.
With `COC(=O)N1CCc2c(nc(-c3ccc(NC(=O)NC4CC4)cc3)nc2N2CCOC[C@@H]2C)C1` [Example 83, (S)-methyl 2-(4-(3-cyclopropylureido)phenyl)-4-(3-methylmorpholino)-5,6-dihydropyrido[3,4-d]pyrimidine-7(8H)-carboxylate], the IC50 in assay [1] was 140 nM; at mTOR (setting [3]) it was below 100 nM.
The like results for `C[C@H]1COCCN1c1nc(-c2ccc(NC(=O)Nc3ccn(C)n3)cc2)nc2c1CN(C)C2` [Example 84, (S)-1-(1-methyl-1H-pyrazol-3-yl)-3-(4-(6-methyl-4-(3-methylmorpholino)-6,7-dihydro-5H-pyrrolo[3,4-d]pyrimidin-2-yl)phenyl)urea] were, in that order, 165 nM and 100 to 1000 nM.
With `CCNC(=O)Nc1ccc(-c2nc3c(c(N4CCOC[C@@H]4C)n2)CN(C)C3)cc1F` [Example 85, (S)-1-ethyl-3-(2-fluoro-4-(6-methyl-4-(3-methylmorpholino)-6,7-dihydro-5H-pyrrolo[3,4-d]pyrimidin-2-yl)phenyl)urea], the IC50 was 873 nM in assay [1] and 100 to 1000 nM on mTOR (setting [3]).
In the same order, the values of `COC(=O)N1Cc2nc(-c3ccc(NC(=O)NC4CC4)cc3)nc(N3CCOC[C@@H]3C)c2C1` [Example 86, (S)-methyl 2-(4-(3-cyclopropylureido)phenyl)-4-(3-methylmorpholino)-5H-pyrrolo[3,4-d]pyrimidine-6(7H)-carboxylate] are 99 nM and below 100 nM.

One may read the IC50 as the concentration that gives 50% inhibition.
